Test results taken from patent US4228292A, “N-Substituted benzothiazolines and benzoxazolines and their use as herbicides and plant growth regulants” (Monsanto Company, priority 1978, dated 1980).

Key:
Format in all cases: in vivo
Panicum Spp [1] = experiment: post-emergent herbicidal test; details: S, 4 WAT
Procedure: (§1) The post-emergent tests were conducted as follows:
(§2) The herbicidal active ingredients are applied in spray form to two or three-week old specimens of various plant species. The spray, a solution or wettable powder suspension containing the appropriate rate of herbicidal active ingredient to give the desired test rate and a surfactant, is applied to the plants. The treated plants are placed in a greenhouse and approximately two or four weeks later the effects are observed and recorded. The results are shown in Tables IX and X in which the post-emergent herbicidal rating code is as follows: […]

Hemp Sesbania [2] = experiment: post-emergent herbicidal test; details: R, 4 WAT
Procedure: as §1, §2

Sugar Beet [3] = experiment: post-emergent herbicidal test; details: M, 4 WAT
Procedure: as §1, §2

Crabgrass [4] = experiment: post-emergent herbicidal test; details: T, 4 WAT
Procedure: as §1, §2

Sorghum [5] = experiment: post-emergent herbicidal test; details: P, 4 WAT
Procedure: as §1, §2

Wild Buckwheat [6] = experiment: post-emergent herbicidal test; details: Q, 4 WAT
Procedure: as §1, §2

Rice [7] = experiment: post-emergent herbicidal test; details: O, 4 WAT
Procedure: as §1, §2

Wheat [8] = experiment: post-emergent herbicidal test; details: N, 4 WAT
Procedure: as §1, §2

Soybean [9] = experiment: post-emergent herbicidal test; details: L, 4 WAT
Procedure: as §1, §2

Panicum Spp [10] = experiment: pre-emergent herbicidal test; details: S
Procedure: (§3) The pre-emergent test was conducted as follows:
(§4) A good grade of top soil was placed in aluminum pans and compactd to a depth of 0.95 to 1.27 cm. from the top of the pan. On the top of the soil was placed a predetermined number of seeds or vegetative propagules of various plant species. The soil required to level fill the pans after seeding or adding vegetative propagules was weighed into a pan. A known amount of the herbicidal active ingredient applied in a solvent or as a wettable powder and the soil were thoroughly mixed, and used as a cover layer for prepared pans. After treatment the pans were moved into a greenhouse bench where they were watered from below as needed to give adequate moisture for germination and growth.
(§5) A herbicidal rating code was used to signify the extent of phytotoxicity of each species. The ratings are defined as follows: […]

Hemp Sesbania [11] = experiment: pre-emergent herbicidal test; details: R
Procedure: as §3, §4, §5

Sugar Beet [12] = experiment: pre-emergent herbicidal test; details: M
Procedure: as §3, §4, §5

Crabgrass [13] = experiment: pre-emergent herbicidal test; details: T
Procedure: as §3, §4, §5

Sorghum [14] = experiment: pre-emergent herbicidal test; details: P
Procedure: as §3, §4, §5

Wild Buckwheat [15] = experiment: pre-emergent herbicidal test; details: Q
Procedure: as §3, §4, §5

Rice [16] = experiment: pre-emergent herbicidal test; details: O
Procedure: as §3, §4, §5

Wheat [17] = experiment: pre-emergent herbicidal test; details: N
Procedure: as §3, §4, §5

Soybean [18] = experiment: pre-emergent herbicidal test; details: L
Procedure: as §3, §4, §5
Also: ranges in brackets are in %.

| SMILES | pre-emergent herbicidal rating (Panicum Spp [10]; 1.12 kg/h, 4 WAT) | pre-emergent herbicidal rating (Panicum Spp [10]; 5.6 kg/h, 4 WAT) | pre-emergent herbicidal rating (Hemp Sesbania [11]; 1.12 kg/h, 4 WAT) | pre-emergent herbicidal rating (Hemp Sesbania [11]; 5.6 kg/h, 4 WAT) | pre-emergent herbicidal rating (Sugar Beet [12]; 1.12 kg/h, 4 WAT) | pre-emergent herbicidal rating (Sugar Beet [12]; 5.6 kg/h, 4 WAT) | pre-emergent herbicidal rating (Crabgrass [13]; 1.12 kg/h, 4 WAT) | pre-emergent herbicidal rating (Crabgrass [13]; 5.6 kg/h, 4 WAT) | pre-emergent herbicidal rating (Sorghum [14]; 1.12 kg/h, 4 WAT) | pre-emergent herbicidal rating (Sorghum [14]; 5.6 kg/h, 4 WAT) | pre-emergent herbicidal rating (Wild Buckwheat [15]; 1.12 kg/h, 4 WAT) | pre-emergent herbicidal rating (Wild Buckwheat [15]; 5.6 kg/h, 4 WAT) | pre-emergent herbicidal rating (Rice [16]; 1.12 kg/h, 4 WAT) | pre-emergent herbicidal rating (Rice [16]; 5.6 kg/h, 4 WAT) | pre-emergent herbicidal rating (Wheat [17]; 1.12 kg/h, 4 WAT) | pre-emergent herbicidal rating (Wheat [17]; 5.6 kg/h, 4 WAT) | pre-emergent herbicidal rating (Soybean [18]; 1.12 kg/h, 4 WAT) | pre-emergent herbicidal rating (Soybean [18]; 5.6 kg/h, 4 WAT) | also measured |
| --- | --- | --- | --- | --- | --- | --- | --- | --- | --- | --- | --- | --- | --- | --- | --- | --- | --- | --- | --- |
| COC(=N)Cn1c(=O)sc2ccccc21 [Compound 11] | 0 (0-24) | 2 (50-74) | 1 (25-49) | 3 (75-100) | 1 (25-49) | 2 (50-74) | 0 (0-24) | 1 (25-49) | 0 (0-24) | 0 (0-24) | 1 (25-49) | 3 (75-100) | 0 (0-24) | 0 (0-24) | 1 (25-49) | 1 (25-49) | 2 (50-74) | 3 (75-100) | post-emergent herbicidal rating (Panicum Spp [1]; 1.12 kg/h): 0 (0-24); post-emergent herbicidal rating (Panicum Spp [1]; 5.6 kg/h): 1 (25-49); post-emergent herbicidal rating (Hemp Sesbania [2]; 1.12 kg/h): 1 (25-49); post-emergent herbicidal rating (Hemp Sesbania [2]; 5.6 kg/h): 3 (75-99); post-emergent herbicidal rating (Sugar Beet [3]; 1.12 kg/h): 2 (50-74); post-emergent herbicidal rating (Sugar Beet [3]; 5.6 kg/h): 4 (100); post-emergent herbicidal rating (Crabgrass [4]; 1.12 kg/h): 0 (0-24); post-emergent herbicidal rating (Crabgrass [4]; 5.6 kg/h): 0 (0-24); post-emergent herbicidal rating (Sorghum [5]; 1.12 kg/h): 0 (0-24); post-emergent herbicidal rating (Sorghum [5]; 5.6 kg/h): 1 (25-49); post-emergent herbicidal rating (Wild Buckwheat [6]; 1.12 kg/h): 2 (50-74); post-emergent herbicidal rating (Wild Buckwheat [6]; 5.6 kg/h): 4 (100); post-emergent herbicidal rating (Rice [7]; 1.12 kg/h): 0 (0-24); post-emergent herbicidal rating (Rice [7]; 5.6 kg/h): 0 (0-24); post-emergent herbicidal rating (Wheat [8]; 1.12 kg/h): 1 (25-49); post-emergent herbicidal rating (Wheat [8]; 5.6 kg/h): 1 (25-49); post-emergent herbicidal rating (Soybean [9]; 1.12 kg/h): 1 (25-49); post-emergent herbicidal rating (Soybean [9]; 5.6 kg/h): 3 (75-99) |
| CCOC(=N)Cn1c(=O)sc2ccccc21 [Compound 25] | 0 (0-24) | 0 (0-24) | 2 (50-74) | 3 (75-100) | 1 (25-49) | 3 (75-100) | 0 (0-24) | 2 (50-74) | 0 (0-24) | 0 (0-24) | 1 (25-49) | 2 (50-74) | 0 (0-24) | 1 (25-49) | 0 (0-24) | 1 (25-49) | 2 (50-74) | 3 (75-100) | pre-emergent herbicidal rating (Panicum Spp [10]; 0.056 kg/h, 2 WAT): 0 (0-24); pre-emergent herbicidal rating (Panicum Spp [10]; 0.28 kg/h, 2 WAT): 0 (0-24); pre-emergent herbicidal rating (Hemp Sesbania [11]; 0.056 kg/h, 2 WAT): 0 (0-24); pre-emergent herbicidal rating (Hemp Sesbania [11]; 0.28 kg/h, 2 WAT): 0 (0-24); pre-emergent herbicidal rating (Sugar Beet [12]; 0.056 kg/h, 2 WAT): 0 (0-24); pre-emergent herbicidal rating (Sugar Beet [12]; 0.28 kg/h, 2 WAT): 1 (25-49); pre-emergent herbicidal rating (Crabgrass [13]; 0.056 kg/h, 2 WAT): 0 (0-24); pre-emergent herbicidal rating (Crabgrass [13]; 0.28 kg/h, 2 WAT): 0 (0-24); pre-emergent herbicidal rating (Sorghum [14]; 0.056 kg/h, 2 WAT): 0 (0-24); pre-emergent herbicidal rating (Sorghum [14]; 0.28 kg/h, 2 WAT): 0 (0-24); pre-emergent herbicidal rating (Wild Buckwheat [15]; 0.056 kg/h, 2 WAT): 0 (0-24); pre-emergent herbicidal rating (Wild Buckwheat [15]; 0.28 kg/h, 2 WAT): 0 (0-24); pre-emergent herbicidal rating (Rice [16]; 0.056 kg/h, 2 WAT): 0 (0-24); pre-emergent herbicidal rating (Rice [16]; 0.28 kg/h, 2 WAT): 0 (0-24); pre-emergent herbicidal rating (Wheat [17]; 0.056 kg/h, 2 WAT): 0 (0-24); pre-emergent herbicidal rating (Wheat [17]; 0.28 kg/h, 2 WAT): 0 (0-24); pre-emergent herbicidal rating (Soybean [18]; 0.056 kg/h, 2 WAT): 0 (0-24); pre-emergent herbicidal rating (Soybean [18]; 0.28 kg/h, 2 WAT): 1 (25-49) |
